Test results taken from patent publication US12440471B2, “Compositions and methods for the treatment of bronchopulmonary dysplasia (BPD) and BPD-associated pulmonary hypertension” (AyuVis Research, Inc., priority 2021, dated 2025).
Read-outs that look alike come from different tables or passages of the source.

What was measured:
[1] = tested on: hPBMC; assay: Macrophage populations in hPBMC by FACS; type: cell-based, human; conditions: 72 h
Protocol: Briefly, hPBMC were plated in a 96 well plate and treated with AVR 48 for 72 hrs. The cells were washed and stained for CD32, CD14, CD16, HLADR, CD86, CD206 anti-human antibodies and were analyzed by FACS. Dead cells were excluded by live/dead staining (7AAD) during analysis. The % of intermediate macrophages of the parent cells are determined as the macrophages stained positive for both HLADR and CD206 surface markers. The bar graph representing percentage of intermediate macrophages (Mint) of the parent macrophage populations (CD14+CD16+) after treatment with AVR-48. n=2 technical replicates and the experiment is repeated 3 times. AVR-48 binds to both toll-like receptor 4 (TLR4) and CD163 receptor on monocytes. In hPBMC, AVR-48 treatment for 72 h increased the percentage of intermediate macrophages and decreased M1 macrophages.

[2] = tested on: whole cord blood (WCB); assay: Cytokines in whole cord blood (WCB); type: cell-based, human
Excerpt: IL-1β and IFN-Υ were not detected with either AVR-48 alone or in combination with LPS. N=[…], **p<0.05, ***p<0.005, ****p<0.001, One-way ANOVA.

[3] = tested on: hyperoxia-exposed BPD mouse model; assay: BPD mouse model: multiplex ELISA of blood serum cytokines; type: in vivo
Protocol: Multiplex ELISA. Lung lysate and blood plasma from control and AVR-48 treated group were used for Multiplex ELISA performed on 4 separate inflammatory panels of Meso Scale Discovery multispot assay system (MSD, Rockville, MD) to detect 2 chemokines (MIP-2, MCP-1) and 8 cytokines: IL-21, IP-10, IFNγ, IL-1(3, TNFα, IL-17, IL-10 and IL-6 following the manufacturer's instructions. Briefly, samples were diluted 1:1 in a total volume of 25 μl with the dilution buffer provided with MSD kit and incubated with the above labelling antibodies for 2 h, RT followed by washing with PB ST. The […] was detected using the MSD-specific luminometer.

[4] = tested on: mice or rat pups; assay: Safety profile of AVR-48 in mice or rat pups (IV, SC, IN; MTD/NOAEL); type: in vivo
Protocol: (§1) Safety Profile of AVR-48. To assess the safety of AVR-48 (compound 8), two doses of intravenous (IV) slow bolus injections or subcutaneous (SC) injections or intranasal (IN) instillation were given to mice or rat pups (postnatal day 3-5 or P3-P5), >6 h apart. The total daily doses were up to 100 mg/kg/day IV, and up to 150 mg/kg/day SC, for 3 consecutive days. […] There was no change in any of the hematological or clinical chemistry parameters. Signs of discoloration, swelling, and macroscopic and microscopic signs of local irritation occurred at the site of administration in all treatment groups and were attributed to the administration vehicle (formulation of 10% DMSO, 20% Tetraglycol, and 20% PEG 400 in sterile water). […] Based on the parameters monitored in this study, the maximum tolerated dose (MTD) and no-observed-adverse-effect level (NOAEL) were considered to be 100 mg/kg/day via IV and 150 mg/kg/day via SC routes of dosing.
(§2) Animals. C57BL/6J mice were purchased from The Jackson Laboratory (Bar Harbor, ME, USA) and were maintained in a breeding colony at Drexel University, Philadelphia, PA, USA. Animal procedures were performed in accordance with the NIH Guide for the Care and Use of Laboratory Animals and were approved by the Institutional Animal Care and Use Committee (IACUC) of Drexel University Philadelphia, PA (Protocol No. 20706). Neonatal rat pups born from female pregnant Sprague Dawley Crl:CD (SD) rats (Charles River Laboratories, St-Constant, QC, Canada) were used for the toxicology and PK studies to evaluate safety, determine the maximum tolerated dose (MTD) and the PK profile of AVR-48. A minimum 6-day acclimation period was allowed between receipt of the animals and the start of treatment to accustom the rats to the laboratory environment. All rat studies were approved by the IACUC of ITR Laboratories, Canada (Protocol No. 74691).
(§3) Formulation of AVR-48 for efficacy and toxicokinetic studies. For the mouse dose response efficacy studies, AVR-48 was reconstituted in 0.9% sterile normal saline to give a final dose concentration of […] as a colorless solution, and injected IP (30 μl) on P2 and P4. The PLGA encapsulated AVR-48 or the GFP-tagged analog was resuspended in deionized sterile water to make a nanosuspension with final dose concentration of 0.025, 0.05 and 0.11 mg/kg/drop. The surfactant Curosurf® (Cheisi Parma, Italy), available commercially, was delivered IN at a volume of 3 μl per nostril, on P2 and P4. For the toxicokinetic study of AVR-48 in rat pups, a formulation of 10% DMSO, 20% tetraglycol, 20% PEG 400, and 50% sterile water was made fresh before administration (Shah, Das et al. 2021).
(§4) Statistical Analysis. All statistical analyses were performed using Graph Pad Prism version 7.0 (GraphPad Software, San Diego, CA). The data are expressed as the mean±SEM with n=5 to 7 mice in each group. Groups were compared with the two-tailed unpaired t-test and one- or two-way analysis of variance (ANOVA), as appropriate. P<0.05 was considered statistically significant. For the toxicology and PK study, a generalized Analysis of Variance/Covariance (ANOVA/ANCOVA) test was performed on the numerical data (3 or more animals/groups) on the study as follows: An automatic transformation was used to analyze the data for homogeneity of variance using Levene's test. Parametric and non-parametric trends were analyzed using the Williams and the Shirley-Williams tests, respectively. Homogeneous data was analyzed using the ANOVA/ANCOVA, and the significance of intergroup differences between the control and test item-treated groups was analyzed using Dunnett's test. Heterogeneous data was analyzed using Kruskal-Wallis test and the significance of intergroup differences between the control and test item-treated groups was assessed using a nonparametric Dunnett's test. All data are reported as ±SEM. […]

[5] = as above; type: in vivo; conditions: C57BL/6J (mouse), Sprague Dawley Crl:CD (rat), mouse, rat, in vivo; for MTD at 3 days: read-out: maximum tolerated dose (MTD); for NOAEL at 3 days: read-out: no-observed-adverse-effect level (NOAEL)
Protocol: as §1, §2, §3, §4

[6] = AVR-48 alone or in combination with LPS

Question: For CC(=O)N[C@@H]1C(Oc2ccc([N+](=O)[O-])cc2)OC(CO)C(O)C1O (stereo partly shown) [AVR-48], which M1 macrophages [1] is on record?
Answer: decreased

Question: What about the “percentage of intermediate macrophages” value [1] of the same molecule?
Answer: increased

Question: And the IFN-Υ [2, 6]?
Answer: not detected

Question: What about the IL-1β [2, 6] of the same molecule?
Answer: not detected

Question: What about the IL-10 increase ([2]; AVR-48 alone, 10 μM) of the same molecule?
Answer: ~1.5 fold

Question: And the IL-10 ([2]; LPS+AVR-48, 10 μM)?
Answer: increased

Question: What about the TNF-α level ([2]; alone or in combination with LPS) of the same molecule?
Answer: significantly decreased

Question: What about the IFNγ ([3]; AVR-48 treated group) of the same molecule?
Answer: decreased to normal levels

Question: And the IL-1β ([3]; AVR-48 treated group)?
Answer: decreased to normal levels

Question: What about the IP-10 ([3]; AVR-48 treated group) of the same molecule?
Answer: decreased to normal levels

Question: And the MCP-1 ([3]; AVR-48 treated group)?
Answer: decreased to normal levels

Question: What about the TNFα ([3]; AVR-48 treated group) of the same molecule?
Answer: decreased to normal levels

Question: And the IL-10 ([3]; BPD group)?
Answer: markedly increased

Question: What about the IL-17 ([3]; treated vs untreated BPD) of the same molecule?
Answer: no change

Question: What about the IL-21 ([3]; treated vs untreated BPD) of the same molecule?
Answer: no change

Question: What about the MIP-2 ([3]; treated vs untreated BPD) of the same molecule?
Answer: no change

Question: And the “toxic effects in the visceral organs” value ([4]; high dose of 100 mg/kg)?
Answer: did not have any toxic effects

Question: What about the “hematological or clinical chemistry parameters” value ([4]; in vivo) of the same molecule?
Answer: no change

Question: What about the therapeutic index ([4]; juvenile mouse, minimum efficacious dose 5 mg/kg/day vs NOAEL 100 mg/kg/day) of the same molecule?
Answer: 20 fold

Question: What about the “systemic gross observations at necropsy in the visceral organs” value ([4]; mouse and rat pups) of the same molecule?
Answer: no evidence of any AVR-48 related systemic gross observations

Question: What about the “white blood cell count, lymphocyte count (females only), total bilirubin (SC groups only)” value ([4]; treated animals, considered non-adverse, not dose dependent) of the same molecule?
Answer: slight decrease

Question: What about the injection site findings ([4]; twice daily IV at 50 mg/kg/dose vs vehicle IV) of the same molecule?
Answer: higher incidence of dermal/subcutaneous hemorrhage at the injection site

Question: What about the “tolerability of all doses” value ([4]; two doses/day >6 h apart, up to 100 mg/kg/day IV, up to 150 mg/kg/day SC, 3 consecutive days, P3-P5 pups) of the same molecule?
Answer: well tolerated

Question: And the “adverse clinical signs and body weight” value ([4]; up to 100 mg/kg/day IV, up to 150 mg/kg/day SC, 3 days)?
Answer: no observed adverse clinical signs and or any change in body weight

Question: What about the MTD at 3 days ([5]; iv) of the same molecule?
Answer: 100 mg/kg/day

Question: What about the NOAEL at 3 days ([5]; iv) of the same molecule?
Answer: 100 mg/kg/day

Question: And the MTD at 3 days ([5]; sc)?
Answer: 150 mg/kg/day

Question: And the NOAEL at 3 days ([5]; sc)?
Answer: 150 mg/kg/day
